Values of other authors in paper PMC7028125 (Clinical Pharmacology in Drug Development, 2019).

How the values were obtained:
[1] = mass balance study of 20 mg [14C]‐dolutegravir (80 µCi)
[2] = tested on: multidrug and toxin extrusion 1 transporter; conditions: in vitro
[3] = tested on: organic cation transporter 2; set-up: method as in PMID 23132334; conditions: in vitro
P‐glycoprotein = tested on: P‐glycoprotein; set-up: method as in PMID 23132334; conditions: in vitro
[4] = tested on: breast cancer resistance protein; set-up: method as in PMID 23132334; conditions: in vitro

Q: Which “Dolutegravir recovered in feces” value [1] does the source give for `C[C@@H]1CCO[C@H]2Cn3cc(C(=O)NCc4ccc(F)cc4F)c(=O)c(O)c3C(=O)N12` [Dolutegravir, dolutegravir] here?
A: 64.0%

Q: And the “Dolutegravir recovered in urine” value [1]?
A: 31.6%

Q: And the “Inhibition of multidrug and toxin extrusion 1 transporter (in words)” value [2]?
A: potently inhibits

Q: And the “Inhibition of organic cation transporter 2 (in words)” value [3]?
A: potently inhibits

Q: What about the “Substrate for P‐glycoprotein (in words)” value (P‐glycoprotein) of the same compound?
A: substrate

Q: What about the “Substrate for breast cancer resistance protein (in words)” value [4] of the same compound?
A: substrate
